Our source for the IC50 and inhibition values is patent US6632829B2, “Sulfonamides and derivatives thereof that modulate the activity of endothelin” (Texas Biotechnology Corp., priority 1996, dated 2003).

In one experiment the target is T1, human ETA receptors (Homo sapiens, UniProt P25101).
T1 construct: endogenous in cells; host or cells: TE 671 cells (ATCC HTB 139), membrane preparation
T1 sequence (P25101 21-427): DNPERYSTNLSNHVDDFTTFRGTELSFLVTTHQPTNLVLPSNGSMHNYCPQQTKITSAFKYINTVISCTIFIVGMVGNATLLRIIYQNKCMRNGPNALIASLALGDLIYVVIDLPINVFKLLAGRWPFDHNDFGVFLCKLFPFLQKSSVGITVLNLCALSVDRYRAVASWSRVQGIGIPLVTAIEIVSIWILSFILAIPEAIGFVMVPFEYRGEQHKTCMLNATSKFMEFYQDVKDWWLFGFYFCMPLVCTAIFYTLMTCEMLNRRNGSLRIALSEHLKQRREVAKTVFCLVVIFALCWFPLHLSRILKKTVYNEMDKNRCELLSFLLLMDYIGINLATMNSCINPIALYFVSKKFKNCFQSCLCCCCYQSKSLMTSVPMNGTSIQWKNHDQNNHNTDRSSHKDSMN
In words: Endothelin binding inhibition, Binding Test #1: competition with 125I-ET-1 for ETA receptors on TE 671 cell membranes. The following applies: incubation at 24° C. (values marked †).

The next experiment addresses T2, human ETB receptor (Homo sapiens, UniProt P24530).
T2 construct: expressed in transfected cells; host or cells: COS7 cells
T2 sequence (P24530 27-442): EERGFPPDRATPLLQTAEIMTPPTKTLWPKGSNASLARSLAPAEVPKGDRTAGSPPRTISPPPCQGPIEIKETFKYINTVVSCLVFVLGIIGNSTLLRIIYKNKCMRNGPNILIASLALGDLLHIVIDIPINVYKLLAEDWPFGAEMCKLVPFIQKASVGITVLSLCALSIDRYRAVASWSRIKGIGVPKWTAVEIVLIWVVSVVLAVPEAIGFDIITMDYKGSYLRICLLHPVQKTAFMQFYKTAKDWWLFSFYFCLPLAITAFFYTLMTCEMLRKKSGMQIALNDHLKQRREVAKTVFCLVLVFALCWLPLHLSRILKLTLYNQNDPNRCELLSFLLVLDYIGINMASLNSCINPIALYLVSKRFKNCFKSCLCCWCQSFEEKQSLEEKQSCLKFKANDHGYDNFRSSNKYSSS
The experiment can be described thus: Endothelin binding inhibition, Binding Test #2: competition with 125I-ET-1 for ETB receptors on transfected COS7 cell membranes. The settings on record: for inhibition at 100 µM: read-out: ETB % inhibition @ 100 μM, @ 100 μM, incubation at 24° C.; for IC50: incubation at 24° C. (values marked †). Put shortly: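 Membranes from COS7 cells transfected with human ETB receptor, prepared in HEPES pH 7.4 with aprotinin, MnCl2/DNase treatment at 37° C for 30 min. Test compounds compete with 125I-labeled ET-1 for receptor binding; membrane used at 1 μg/50 μL binding buffer.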

Values joined by “and” are separate entries in the source; they are usually repeats but may differ in a detail not shown here. Identical values can stand only once.

What is called IC50 is the concentration that gives 50% inhibition. In general, inhibition refers to the change of the read-out against control, counted positive when it falls.

As for `COc1ccccc1OC(=O)c1sccc1S(=O)(=O)Nc1onc(C)c1Br` [N-(4-bromo-3-methyl-5-isoxazolyl)-2-[(2-methoxylphenoxy)carbonyl]thiophene-3-sulfonamide], the half-maximal inhibitory concentration (IC50) at human ETA receptors turned out to be 761 nM. In addition, on human ETB receptor, the inhibition at 100 µM was 29%.

On to `COc1ccc(Cc2sc3ccccc3c2S(=O)(=O)Nc2onc(C)c2Br)cc1OC` [N-(4-bromo-3-methyl-5-isoxazolyl)-2-(3,4-dimethoxybenzyl)benzo[b]thiophene-3-sulfonamide], for which the values for the 50% inhibitory concentration (IC50) at human ETA receptors and on human ETB receptor were 21 ± 17 nM and 2940 ± 1320 nM, respectively.

In the case of `Cc1ccc(CC(=O)c2sccc2S(=O)(=O)Nc2onc(C)c2Br)cc1` [N-(4-bromo-3-methyl-5-isoxazolyl)-2-[(4-methylphenyl)acetyl]thiophene-3-sulfonamide], the IC50 at human ETA receptors is 198 nM; on human ETB receptor it was 9130 nM.

Regarding `Cc1noc(NS(=O)(=O)c2c(-c3ccc4c(c3)OCO4)sc3ccccc23)c1Cl` [N-(4-chloro-3-methyl-5-isoxazolyl)-2-[3,4-(methylenedioxy)phenyl]benzo[b]thiophene-3-sulfonamide], the IC50 at human ETA receptors amounted to 550 nM; on human ETB receptor it was 52600 nM.

With `Cc1ccc(/C=C/c2ccsc2S(=O)(=O)Nc2onc(C)c2Br)cc1` [N-(4-bromo-3-methyl-5-isoxazolyl)-3-(4-methyl-trans-styryl)thiophene-2-sulfonamide], the half-inhibitory concentration (IC50) amounted to 940 nM at human ETA receptors and 660 nM at human ETB receptor.

For the molecule `Cc1noc(NS(=O)(=O)c2ccsc2C(=O)Oc2ccccc2)c1C` [N-(3,4-dimethyl-5-isoxazolyl)-2-(phenoxycarbonyl)thiophene-3-sulfonamide], the IC50 on human ETA receptors came out at 2850 nM. The inhibition at 100 µM at human ETB receptor was found to be 31%.

As for `COc1cc(C#N)c(NC(=O)c2sccc2S(=O)(=O)Nc2onc(C)c2Cl)cc1OC` [N-(4-chloro-3-methyl-5-isoxazolyl)-2-[{2-cyano-4,5-dimethoxyphenyl)aminocarbonyl]thiophene-3-sulfonamide], the results for the concentration for half-maximal inhibition (IC50) at human ETA receptors and at human ETB receptor were 3.9 nM and 12200 nM, respectively.

In the case of `Cc1noc(NS(=O)(=O)c2ccsc2C(=O)Nc2ccccc2O)c1Br` [N-(4-bromo-3-methyl-5-isoxazolyl)-2-[(2-hydroxyphenyl)aminocarbonyl]thiophene-3-sulfonamide], the results for the IC50 at human ETA receptors and on human ETB receptor were 13 nM and 38000 nM, respectively.

`Cc1noc(NS(=O)(=O)c2ccsc2CC(c2ccc3c(c2)OCO3)N(C)C)c1Cl` (stereo not drawn) [N-(4-chloro-3-methyl-5-isoxazolyl)-2-[β-(dimethylamino)-3,4-(methylenedioxy)phenethy]thiophene-3-sulfonamide]: the IC50 is 20900 nM on human ETA receptors and roughly 100000 nM at human ETB receptor.

Regarding `CC(=O)OCc1c(C)cc(C)c(NC(=O)c2sccc2S(=O)(=O)Nc2noc(C)c2Cl)c1C` [N-(4-chloro-5-methyl-3-isoxazolyl)-2-(3-acetoxymethyl-2,4,6-trimethylphenylaminocarbonyl)thiophene-3-sulfonamide], the results for the half-inhibitory concentration (IC50) at human ETA receptors and on human ETB receptor were 0.51 nM and 19700 nM, respectively.

Turning to `Cc1ccccc1-c1ccsc1S(=O)(=O)Nc1onc(C)c1Br` [N-(4-bromo-3-methyl-5-isoxazolyl)-3-(2-tolyl)thiophene-2-sulfonamide], on human ETA receptors, the 50% inhibitory concentration (IC50) was 324 nM and 302 nM. Further, at human ETB receptor, the IC50 is 55100 nM and the inhibition at 100 µM turned out to be 31%.

`Cc1noc(NS(=O)(=O)c2ccsc2C(=O)Nc2cc3c(cc2CNS(C)(=O)=O)OCO3)c1Cl` [N-(4-chloro-3-methyl-5-isoxazolyl)-2-[2-methanesulfonylaminomethyl)-4,5-(methylenedioxy)phenylaminocarbonyl]thiophene-3-sulfonamide]: the IC50 is 6.8 nM on human ETA receptors and 19800 nM at human ETB receptor.

As to `Cc1noc(NS(=O)(=O)c2ccsc2C(=O)NC(=O)c2ccc3c(c2)OCO3)c1Br` [N-(4-bromo-3-methyl-5-isoxazolyl)-2-[(3,4-methylenedioxy)benzoyl]aminocarbonyl]thiophene-3-sulfonamide], the results for the IC50 on human ETA receptors and on human ETB receptor were 89 nM and 37000 nM, respectively.

In the case of `Cc1ccc(OCc2ccsc2S(=O)(=O)Nc2onc(C)c2Br)c(C)c1` [N-(4-bromo-3-methyl-5-isoxazolyl)-3-[(2,4-dimethylphenoxy)methyl]thiophene-2-sulfonamide], the IC50 at human ETA receptors stood at 346 nM; on human ETB receptor it was 7450 nM.

For `Cc1ccc(C)c(CC(=O)c2sccc2S(=O)(=O)Nc2onc(C)c2Cl)c1` [N-(4-chloro-3-methyl-5-isoxazolyl)-2-(2,5-dimethylphenylacetyl)thiophene-3-sulfonamide], the IC50 on human ETA receptors turned out to be 7 nM; on human ETB receptor, 18000 nM.

On to `Cc1cc(C)c(NC(=O)c2sccc2S(=O)(=O)Nc2onc(C)c2Cl)c(-c2ccccc2)c1` [N-(4-chloro-3-methyl-5-isoxazolyl)-2-(2-phenyl-4,6-dimethylphenylaminocarbonyl)thiophene-3-sulfonamide], for which the IC50 was 15.9 nM on human ETA receptors and 29500 nM at human ETB receptor.

As for `Cc1cc2c(cc1CCc1ccsc1S(=O)(=O)Nc1onc(C)c1Br)OCO2` [N-(4-bromo-3-methyl-5-isoxazolyl)-3-[2-methyl-4,5-(methylenedioxy)phenethyl]thiophene-2-sulfonamide], the figures for the half-maximal inhibitory concentration (IC50) on human ETA receptors and on human ETB receptor were roughly 100 nM and roughly 5000 nM, respectively.

For `COc1ccc(Cc2sc3ccccc3c2S(=O)(=O)Nc2onc(C)c2Br)cc1` [N-(4-bromo-3-methyl-5-isoxazolyl)-2-(4-methoxybenzyl)benzo[b]thiophene-3-sulfonamide], the IC50 was determined as 51 nM on human ETA receptors and 1500 nM on human ETB receptor.

In the case of `Cc1ccc(-c2ccc(S(=O)(=O)Nc3onc(C)c3Br)s2)s1` [N-(4-bromo-3-methyl-5-isoxazolyl)-5-(5-methyl-2-thienyl)thiophene-2-sulfonamide], the IC50 at human ETA receptors was found to be 17000 nM; at human ETB receptor it was 210 nM.

Take `Cc1cc(C)c(OCc2sccc2S(=O)(=O)Nc2onc(C)c2Br)c(C)c1` [N-(4-bromo-3-methyl-5-isoxazolyl)-2-[(2,4,6-trimethylphenoxy)methyl]thiophene-3-sulfonamide]: the IC50 at human ETA receptors was determined as 56.2 nM; on human ETB receptor, 3390 nM.

With `Cc1noc(NS(=O)(=O)c2ccsc2C(=O)Oc2ccc3c(c2)OCO3)c1Cl` [N-(4-chloro-3-methyl-5-isoxazolyl)-2-[3,4-(methylenedioxy)phenoxycarbonyl]thiophene-3-sulfonamide], the IC50 worked out at 6.5 nM at human ETA receptors and 7400 nM at human ETB receptor.

With `Cc1noc(NS(=O)(=O)c2ccsc2C(=O)OCCc2ccc3c(c2)OCO3)c1Cl` [N-(4-chloro-3-methy-5-isoxazolyl)-2-[2-(3,4-methylenedioxyphenyl)]ethoxycarbonyl-3-sulfonamide], the IC50 worked out at 230 nM on human ETA receptors and 6200 nM on human ETB receptor.

For “N-(3,4-dimethyl-5-isoxazolyl)-2-(4-tolylacetylphenyl)thiophene-3-sulfonamide”, the IC50 on human ETA receptors amounted to 2.7 nM; on human ETB receptor, 29200 nM.

With `CC(=O)OCCc1cc2c(cc1NC(=O)c1sccc1S(=O)(=O)Nc1onc(C)c1Cl)OCO2` [N-(4-chloro-3-methyl-5-isoxazolyl)-2-[3,4-(methylenedioxy)-6-(2-acetoxyethyl)phenylaminocarbonyl]thiophene-3-sulfonamide], the half-inhibitory concentration (IC50) is 4.5 nM at human ETA receptors and 25700 nM at human ETB receptor.

In the case of `Cc1noc(NS(=O)(=O)c2ccsc2C(=O)Nc2ccc(O)nn2)c1Br` [N-(4-bromo-3-methyl-5-isoxazolyl)-2-[(3-hydroxyl-6-pyridazinyl)aminocarbonyl]thiophene-3-sulfonamide], the half-inhibitory concentration (IC50) on human ETA receptors turned out to be 66 nM; on human ETB receptor it was 81300 nM.

On to `Cc1cc(C)c(CCc2ccsc2S(=O)(=O)Nc2onc(C)c2Br)c(C)c1` [N-(4-bromo-3-methyl-5-isoxazolyl)-3-(2,4,6-trimethylphenethyl)thiophene-2-sulfonamide], for which the half-inhibitory concentration (IC50) was determined as 55 nM at human ETA receptors and 1620 nM on human ETB receptor.

For `Cc1noc(NS(=O)(=O)c2sccc2Cc2ccc3c(c2)OCO3)c1Br` [N-(4-bromo-3-methyl-5-isoxazolyl)-3-[(3,4-methylenedioxy)benzyl]thiophene-2-sulfonamide], the IC50 at human ETA receptors amounted to 8100 nM; on human ETB receptor, 3200 nM.

Regarding `Cc1ccc(CCc2sccc2S(=O)(=O)Nc2onc(C)c2Br)c(C)c1` [N-(4-bromo-3-methyl-5-isoxazolyl)-2-(2,4-dimethylphenethyl)thiophene-3-sulfonamide], the IC50 is 55.5 nM at human ETA receptors and 3480 nM on human ETB receptor.

As to `Cc1noc(NS(=O)(=O)c2ccsc2C(=O)OCc2ccc3c(c2)OCO3)c1Cl` [N-(4-chloro-3-methyl-5-isoxazolyl)-2-[3,4-(methylenedioxy)benzyloxycarbonyl]thiophene-3-sulfonamide], the IC50 was found to be 420 nM at human ETA receptors and 12000 nM on human ETB receptor.
